Tests used:
Experiment in all cases: relative viability (nuclei count vs DMSO), 5 days (fraction); higher = more cells survive
NCI-H2126 = system: NCI-H2126
Method in brief: (§1)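 One day after seeding in 1536-well plates, lung cancer cell lines were dosed by pin tool. Dosing was either single-drug or a fixed anchor-drug dose plus five library-drug doses (not always all listed) in √10 steps. After 5 days, nuclei were stained in one fix-and-stain step and counted on 4× images, and relative viability is the nuclei count of treated wells over that of vehicle wells, given as the median of duplicate plates.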

NCI-H1395 = system: NCI-H1395
Method in brief: as §1

NCI-H647 = system: NCI-H647
Method in brief: as §1

NCI-H2009 = system: NCI-H2009
Method in brief: as §1

NCI-H1355 = system: NCI-H1355
Method in brief: as §1

NCI-H650 = system: NCI-H650
Method in brief: as §1

LU99A = system: LU99A
Method in brief: as §1

NCI-H322M = system: NCI-H322M
Method in brief: as §1

PC-14 = system: PC-14
Method in brief: as §1

BEN = system: BEN
Method in brief: as §1

HCC-15 = system: HCC-15
Method in brief: as §1

NCI-H2228 = system: NCI-H2228
Method in brief: as §1

NCI-H2405 = system: NCI-H2405
Method in brief: as §1

NCI-H838 = system: NCI-H838
Method in brief: as §1

NCI-H661 = system: NCI-H661
Method in brief: as §1

NCI-H23 = system: NCI-H23
Method in brief: as §1

LCLC-97TM1 = system: LCLC-97TM1
Method in brief: as §1

NCI-H2342 = system: NCI-H2342
Method in brief: as §1

201T = system: 201T
Method in brief: as §1

EPLC-272H = system: EPLC-272H
Method in brief: as §1

NCI-H460 = system: NCI-H460
Method in brief: as §1

NCI-H2085 = system: NCI-H2085
Method in brief: as §1

HCC-78 = system: HCC-78
Method in brief: as §1

## CCNC(=O)c1noc(-c2cc(C(C)C)c(O)cc2O)c1-c1ccc(CN2CCOCC2)cc1 [Luminespib] + N=C(N)NC(=N)NCCc1ccccc1 [Phenformin] (partner 250 µM)
NCI-H2126; first compound 0.002 µM
  relative viability: 0.523
NCI-H2126; first compound 0.006325 µM
  relative viability: 0.506
NCI-H2126; first compound 0.02 µM
  relative viability: 0.497
NCI-H2126; first compound 0.06325 µM
  relative viability: 0.279
NCI-H2126; first compound 0.2 µM
  relative viability: 0.307
NCI-H1395; first compound 0.002 µM
  relative viability: 0.448
NCI-H1395; first compound 0.006325 µM
  relative viability: 0.401
NCI-H1395; first compound 0.02 µM
  relative viability: 0.39
NCI-H1395; first compound 0.06325 µM
  relative viability: 0.326
NCI-H1395; first compound 0.2 µM
  relative viability: 0.335
NCI-H647; first compound 0.002 µM
  relative viability: 0.396
NCI-H647; first compound 0.006325 µM
  relative viability: 0.504
NCI-H647; first compound 0.02 µM
  relative viability: 0.429
NCI-H647; first compound 0.06325 µM
  relative viability: 0.0796
NCI-H647; first compound 0.2 µM
  relative viability: 0.0823
NCI-H2009; first compound 0.002 µM
  relative viability: 0.543
NCI-H2009; first compound 0.006325 µM
  relative viability: 0.44
NCI-H2009; first compound 0.02 µM
  relative viability: 0.487
NCI-H2009; first compound 0.06325 µM
  relative viability: 0.0851
NCI-H2009; first compound 0.2 µM
  relative viability: 0.103
NCI-H1355; first compound 0.002 µM
  relative viability: 0.431
NCI-H1355; first compound 0.006325 µM
  relative viability: 0.456
NCI-H1355; first compound 0.02 µM
  relative viability: 0.382
NCI-H1355; first compound 0.06325 µM
  relative viability: 0.254
NCI-H1355; first compound 0.2 µM
  relative viability: 0.17
NCI-H650; first compound 0.002 µM
  relative viability: 0.437
NCI-H650; first compound 0.006325 µM
  relative viability: 0.453
NCI-H650; first compound 0.02 µM
  relative viability: 0.391
NCI-H650; first compound 0.06325 µM
  relative viability: 0.213
NCI-H650; first compound 0.2 µM
  relative viability: 0.121
LU99A; first compound 0.002 µM
  relative viability: 0.818
LU99A; first compound 0.006325 µM
  relative viability: 0.71
LU99A; first compound 0.02 µM
  relative viability: 0.535
LU99A; first compound 0.06325 µM
  relative viability: 0.167
LU99A; first compound 0.2 µM
  relative viability: 0.125
NCI-H322M; first compound 0.002 µM
  relative viability: 0.801
NCI-H322M; first compound 0.006325 µM
  relative viability: 0.729
NCI-H322M; first compound 0.02 µM
  relative viability: 0.717
NCI-H322M; first compound 0.06325 µM
  relative viability: 0.287
NCI-H322M; first compound 0.2 µM
  relative viability: 0.278
PC-14; first compound 0.002 µM
  relative viability: 0.618
PC-14; first compound 0.006325 µM
  relative viability: 0.393
PC-14; first compound 0.02 µM
  relative viability: 0.196
PC-14; first compound 0.06325 µM
  relative viability: 0.0634
PC-14; first compound 0.2 µM
  relative viability: 0.0788
BEN; first compound 0.002 µM
  relative viability: 0.259
BEN; first compound 0.006325 µM
  relative viability: 0.268
BEN; first compound 0.02 µM
  relative viability: 0.273
BEN; first compound 0.06325 µM
  relative viability: 0.216
BEN; first compound 0.2 µM
  relative viability: 0.199
HCC-15; first compound 0.002 µM
  relative viability: 0.429
HCC-15; first compound 0.006325 µM
  relative viability: 0.405
HCC-15; first compound 0.02 µM
  relative viability: 0.311
HCC-15; first compound 0.06325 µM
  relative viability: 0.162
HCC-15; first compound 0.2 µM
  relative viability: 0.114
NCI-H2228; first compound 0.002 µM
  relative viability: 0.314
NCI-H2228; first compound 0.006325 µM
  relative viability: 0.288
NCI-H2228; first compound 0.02 µM
  relative viability: 0.115
NCI-H2228; first compound 0.06325 µM
  relative viability: 0.102
NCI-H2228; first compound 0.2 µM
  relative viability: 0.0912
NCI-H2405; first compound 0.002 µM
  relative viability: 0.417
NCI-H2405; first compound 0.006325 µM
  relative viability: 0.314
NCI-H2405; first compound 0.02 µM
  relative viability: 0.514
NCI-H2405; first compound 0.06325 µM
  relative viability: 0.193
NCI-H2405; first compound 0.2 µM
  relative viability: 0.196
NCI-H838; first compound 0.002 µM
  relative viability: 0.664
NCI-H838; first compound 0.006325 µM
  relative viability: 0.55
NCI-H838; first compound 0.02 µM
  relative viability: 0.257
NCI-H838; first compound 0.06325 µM
  relative viability: 0.107
NCI-H838; first compound 0.2 µM
  relative viability: 0.114
NCI-H661; first compound 0.002 µM
  relative viability: 0.262
NCI-H661; first compound 0.006325 µM
  relative viability: 0.279
NCI-H661; first compound 0.02 µM
  relative viability: 0.27
NCI-H661; first compound 0.06325 µM
  relative viability: 0.241
NCI-H661; first compound 0.2 µM
  relative viability: 0.191
NCI-H23; first compound 0.002 µM
  relative viability: 0.821
NCI-H23; first compound 0.006325 µM
  relative viability: 0.727
NCI-H23; first compound 0.02 µM
  relative viability: 0.611
NCI-H23; first compound 0.06325 µM
  relative viability: 0.359
NCI-H23; first compound 0.2 µM
  relative viability: 0.16
LCLC-97TM1; first compound 0.002 µM
  relative viability: 0.399
LCLC-97TM1; first compound 0.006325 µM
  relative viability: 0.374
LCLC-97TM1; first compound 0.02 µM
  relative viability: 0.426
LCLC-97TM1; first compound 0.06325 µM
  relative viability: 0.428
LCLC-97TM1; first compound 0.2 µM
  relative viability: 0.102
NCI-H2342; first compound 0.002 µM
  relative viability: 0.549
NCI-H2342; first compound 0.006325 µM
  relative viability: 0.581
NCI-H2342; first compound 0.02 µM
  relative viability: 0.454
NCI-H2342; first compound 0.06325 µM
  relative viability: 0.606
NCI-H2342; first compound 0.2 µM
  relative viability: 0.355
201T; first compound 0.002 µM
  relative viability: 0.396
201T; first compound 0.006325 µM
  relative viability: 0.465
201T; first compound 0.02 µM
  relative viability: 0.477
201T; first compound 0.06325 µM
  relative viability: 0.373
201T; first compound 0.2 µM
  relative viability: 0.24
EPLC-272H; first compound 0.002 µM
  relative viability: 0.307
EPLC-272H; first compound 0.006325 µM
  relative viability: 0.291
EPLC-272H; first compound 0.06325 µM
  relative viability: 0.271
EPLC-272H; first compound 0.2 µM
  relative viability: 0.0832
NCI-H460; first compound 0.002 µM
  relative viability: 0.616
NCI-H460; first compound 0.006325 µM
  relative viability: 0.458
NCI-H460; first compound 0.02 µM
  relative viability: 0.0329
NCI-H460; first compound 0.06325 µM
  relative viability: 0.0168
NCI-H460; first compound 0.2 µM
  relative viability: 0.0232
NCI-H2085; first compound 0.002 µM
  relative viability: 0.807
NCI-H2085; first compound 0.006325 µM
  relative viability: 0.713
NCI-H2085; first compound 0.02 µM
  relative viability: 0.408
NCI-H2085; first compound 0.06325 µM
  relative viability: 0.221
NCI-H2085; first compound 0.2 µM
  relative viability: 0.225
HCC-78; first compound 0.002 µM
  relative viability: 0.689
HCC-78; first compound 0.006325 µM
  relative viability: 0.52
HCC-78; first compound 0.06325 µM
  relative viability: 0.767
HCC-78; first compound 0.2 µM
  relative viability: 0.257

From the supplement of paper PMC10307832
